Source: US10640495B2, “Heterocycle derivatives having TrkA inhibitory activity” (Shionogi & Co., Ltd., priority 2015, dated 2020)
Like-named read-outs stand apart in the source and are kept apart here.

How the values were obtained:
[1] = molecular target: human TrkA (Homo sapiens (Human), UniProt P04629); experiment: Human TrkA inhibition assay (Test Example 2); assay type: biochemical
In short: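 Recombinant TrkA (1 nmol/L) was preincubated 15 min at room temperature with compound in HEPES/MgCl2/DTT buffer, then reacted with FL-peptide 27 (1.5 μmol/L) and ATP (500 μmol/L) for 120 min at 37 °C. After EDTA stop, substrate phosphorylation was read by microfluidic mobility shift. IC50 came from logistic regression over 3-fold dilution series.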

[2] = molecular target: hERG channel (IKr) (Homo sapiens (Human), UniProt Q12809); experiment: hERG test, whole cell patch clamp IKr in CHO cells (Test Example 3); assay type: cell-based; details: pH 7.4, at of test compound (so in the source), CHO cells expressing hERG channel, read-out: % inhibition of tail peak current (IKr)
Sequence of hERG channel (IKr) (Q12809 whole entry): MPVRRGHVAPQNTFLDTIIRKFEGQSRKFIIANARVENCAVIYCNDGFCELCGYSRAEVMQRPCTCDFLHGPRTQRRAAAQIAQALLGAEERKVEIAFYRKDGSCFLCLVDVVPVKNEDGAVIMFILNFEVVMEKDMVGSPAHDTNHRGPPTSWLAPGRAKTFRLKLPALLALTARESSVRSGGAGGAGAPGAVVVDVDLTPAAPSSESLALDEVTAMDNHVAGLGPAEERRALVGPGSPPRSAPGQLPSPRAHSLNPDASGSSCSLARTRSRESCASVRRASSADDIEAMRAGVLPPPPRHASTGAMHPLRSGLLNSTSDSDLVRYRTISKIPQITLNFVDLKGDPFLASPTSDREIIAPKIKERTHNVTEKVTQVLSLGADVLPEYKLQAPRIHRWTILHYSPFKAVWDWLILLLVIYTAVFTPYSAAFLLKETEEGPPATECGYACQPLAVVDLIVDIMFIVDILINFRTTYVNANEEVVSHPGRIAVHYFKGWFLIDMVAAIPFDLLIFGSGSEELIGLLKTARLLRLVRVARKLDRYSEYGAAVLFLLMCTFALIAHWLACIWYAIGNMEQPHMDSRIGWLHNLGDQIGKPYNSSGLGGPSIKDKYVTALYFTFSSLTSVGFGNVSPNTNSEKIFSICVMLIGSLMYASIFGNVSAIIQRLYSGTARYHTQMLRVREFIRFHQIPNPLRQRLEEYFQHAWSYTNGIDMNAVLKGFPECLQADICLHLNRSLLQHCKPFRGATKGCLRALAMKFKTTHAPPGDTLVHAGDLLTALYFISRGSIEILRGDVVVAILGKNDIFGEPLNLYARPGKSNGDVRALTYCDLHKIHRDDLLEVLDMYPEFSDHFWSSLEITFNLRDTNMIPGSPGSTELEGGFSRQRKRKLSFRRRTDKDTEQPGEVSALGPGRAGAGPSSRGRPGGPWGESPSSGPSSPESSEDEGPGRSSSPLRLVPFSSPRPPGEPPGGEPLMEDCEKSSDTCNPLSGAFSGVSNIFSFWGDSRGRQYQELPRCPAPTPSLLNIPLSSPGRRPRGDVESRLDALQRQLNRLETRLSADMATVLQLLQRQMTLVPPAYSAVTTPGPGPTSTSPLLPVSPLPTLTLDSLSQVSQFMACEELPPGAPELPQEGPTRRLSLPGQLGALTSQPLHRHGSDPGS
From the text: For the purpose of assessing risk of an electrocardiogram QT interval prolongation of the compound of the present invention, effects of the compound of the present invention on delayed rectifier K^+ current (IKr), which plays an important role in the ventricular repolarization process, was studied using CHO cells expressing human ether-a-go-go related gene (hERG) channel.
After a cell was retained at a membrane potential of −80 mV by whole cell patch clamp method using an automated patch clamp system (QPatch; Sophion Bioscience A/S) and gave a leak potential of −50 mV, IKr induced by depolarization pulse stimulation at +20 mV for 2 seconds, and further, repolarization pulse stimulation at −50 mV for 2 seconds, was recorded. A vehicle, which is the 0.1-0.3% dimethyle sulfoxide solution in extracellular solution (NaCl: 145 mmol/L, KCl: 4 mmol/L, CaCl2: 2 mmol/L, MgCl2: 1 mmol/L, glucose: 10 mmol/L, HEPES (4-(2-hydroxyethyl)-1-piperazineethanesulfonic acid): 10 mmol/L, pH7.4), or the compound of the present invention had been dissolved at an objective concentration in the extracellular solution is applied to the cell at room temperature for 7 minutes or more. From the recording IKr, an absolute value of the tail peak current was measured based on the current value at the resting membrane potential using analysis software (QPatch assay software; Sophion Bioscience A/S). Further, the % inhibition of tail peak current for the compound of the present invention relative to the tail peak current after application of the vehicle is calculated to assess influence of the compound of the present invention on IKr.
(Result) % inhibition was shown at […] of test compound.

[3] = Clearance test, intravenous administration in SD rats (Test Example 7); assay type: in vivo; details: rat, plasma, intravenous administration 0.5 mg/kg or 1 μmol/kg, read-out: Total Clearance (CLtot)
Description: Materials and Methods for Experiments • (1) Experimental animals: SD rats were used. • (2) Rearing condition: SD rats were allowed free access to solid feed and sterilized tap water. • (3) Setting of dosage and grouping: Intravenous administration was performed with the predetermined dosage. Grouping was set as below. (Dosage is changed per compound) Intravenous administration 0.5 mg/kg or 1 μmol/kg (n=2) • (4) Preparation of administration solutions: Administration was performed after solubilization by using dimethylacetamide/propylene glycol=1/1 or dimethyl sulfoxide/propylene glycol=1/1 as the solvent. • (5) Routes of administration: Intravenous administration was performed from caudal vein by syringes with needle. • (6) Evaluation items: Blood was collected serially and concentration of a compound of the present invention in plasma was measured by LC/MS/MS. • (7) Statistical analysis: About transition of concentration of a compound of the present invention in plasma, Total Clearance (CLtot) of a compound of the present invention was calculated by non-linear least-squares method program, WinNonlin (a registered trademark).

[4] = Table 152, human TrkA inhibition, read-out: IC50_nM
[5] = human TrkA 1 nmol/L, ATP 500 μmol/L, 120 min at 37° C., read-out: IC50 values (TrkA phosphorylation inhibition)
[6] = Table 153, human TrkA inhibition, read-out: IC50
[7] = Table 157, human TrkA inhibition, read-out: IC50

Sequence of human TrkA (P04629 440-796): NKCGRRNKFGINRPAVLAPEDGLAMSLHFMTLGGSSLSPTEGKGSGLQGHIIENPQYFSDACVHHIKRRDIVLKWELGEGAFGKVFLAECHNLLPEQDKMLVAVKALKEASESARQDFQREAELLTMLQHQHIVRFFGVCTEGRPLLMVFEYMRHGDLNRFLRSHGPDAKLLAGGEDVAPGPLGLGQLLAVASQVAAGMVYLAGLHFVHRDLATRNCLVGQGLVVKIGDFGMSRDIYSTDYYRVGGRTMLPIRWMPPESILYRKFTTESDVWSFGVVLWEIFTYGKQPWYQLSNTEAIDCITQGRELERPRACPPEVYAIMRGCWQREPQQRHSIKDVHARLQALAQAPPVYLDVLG

## COCCC1C[C@@H](NC(=O)Nc2c(C)c(-c3cnc(C)nc3)nn2-c2ccccc2)[C@H](c2ccccc2)O1 (stereo partly drawn) [Compound I-12]
[1]; [4]
  IC50: < 100 nM
[2]
  inhibition at 5 mol/L: 17.6%
[3]
  clearance: 13.6 mL/min/kg

## COCC[C@@H]1C[C@@H](NC(=O)Nc2c(C)c(-c3cnc4c(c3)nnn4C)nn2-c2ccccc2)[C@H](c2ccnc(F)c2)O1 [Compound I-275]
[1]; [5]
  IC50: 3 nM
[3]
  clearance: 3.73 mL/min/kg

## COCCN1C[C@@H](NC(=O)Nc2c(C)c(-c3cnc(OC)nc3)nn2-c2ccccc2)[C@H](c2cnc(F)c(F)c2)O1 (racemic) [Compound I-57]
[1]; [5]
  IC50: 2.2 nM
[3]
  clearance: 7.93 mL/min/kg

## COCCC1C[C@@H](NC(=O)Nc2c(C)c(-c3cnn(C)c3)nn2-c2ccccc2)[C@H](c2ccccc2)O1 (stereo partly drawn) [Compound I-6]
[1]; [4]
  IC50: < 100 nM
[2]
  inhibition at 5 mol/L: 8.9%

## COCCN1C[C@@H](NC(=O)Nc2c(C)c(-c3cnc4c(cnn4C)c3)nn2-c2ccccc2)[C@H](c2ccnc(F)c2)O1 (racemic) [Compound I-40]
[1]; [5]
  IC50: 1.6 nM
[3]
  clearance: 2.82 mL/min/kg

## COCCN1C[C@@H](NC(=O)Nc2c(C)c(-c3cnc4c(c3)nnn4C)nn2-c2ccccc2)[C@H](c2ccnc(F)c2)O1 (racemic) [Compound I-90]
[1]; [6]
  IC50: < 100 nM
[3]
  clearance: 6.35 mL/min/kg

## COCC[C@@H]1O[C@@H](NC(=O)Nc2c(C)c(-c3cnn(C)c3)nn2-c2ccccc2)[C@H](c2ccccc2)O1 [Compound I-7]
[1]; [5]
  IC50: 6.1 nM
[2]
  inhibition at 5 mol/L: 4.2%

## CCN1CCC(NC(=O)c2ccc(-c3nn(-c4ccccc4)c(NC(=O)N[C@@H]4CC(CCOC)O[C@H]4c4ccccc4)c3C)cc2)CC1 (stereo partly drawn) [Compound I-19]
[1]; [4]
  IC50: < 100 nM
[3]
  clearance: 15.6 mL/min/kg

## COCCN1C[C@@H](NC(=O)Nc2c(C)c(-c3cnn(C)c3)nn2-c2ccccc2)[C@H](c2ccccc2)O1 (racemic) [Compound I-4]
[1]; [4]
  IC50: < 100 nM
[2]
  inhibition at 5 mol/L: 14.1%

## Cc1c(-c2cccnc2)nn(-c2ccccc2)c1NC(=O)N[C@@H]1CN(CC(F)F)O[C@H]1c1ccc(F)c(F)c1 (racemic) [Compound I-629]
[1]; [7]
  IC50: < 100 nM

## COCCN1C[C@@H](NC(=O)Nc2c(C)c(-c3cnc(N4CC[C@@H](OC)C4)nc3)nn2-c2ccccc2)[C@H](c2ccnc(F)c2)O1 [Compound I-585]
[1]; [7]
  IC50: < 100 nM

## COCCN1C[C@@H](NC(=O)Nc2c(C)c(-c3cnc(N4CC(O)C4)nc3)nn2-c2ccccc2)[C@H](c2ccnc(F)c2)O1 (racemic) [Compound I-144]
[1]; [6]
  IC50: < 100 nM

## COCCN1C[C@@H](NC(=O)Nc2c(C)c(-c3cnc(N(C(=O)OC(C)(C)C)C4CC4)nc3)nn2-c2ccccc2)[C@H](c2ccnc(F)c2)O1 (racemic) [Compound I-120]
[1]; [6]
  IC50: < 100 nM

## Cc1c(-c2cnn(C)c2)nn(-c2ccccc2)c1NC(=O)N[C@@H]1OC(C)(C)O[C@H]1c1ccccc1 (racemic) [Compound I-1]
[1]; [5]
  IC50: 5200 nM

## COCCN1C[C@@H](NC(=O)Nc2c(C)c(-c3ccnc(C(=O)OC)c3)nn2-c2ccccc2)[C@H](c2cnc(F)c(F)c2)O1 [Compound I-197]
[1]; Table 154, human TrkA inhibition, read-out: IC50
  IC50: < 100 nM

## COCCN1C[C@H](NC(=O)Nc2c(C)c(OCC(C)(C)O)nn2-c2ccccc2)[C@@H](c2cnc(F)c(F)c2)O1 [Compound I-83]
[1]; [6]
  IC50: > 1000 nM

## COCCN1C[C@@H](NC(=O)Nc2c(C)c(-c3cnc(OC)c(C(=O)NC4CCOCC4)c3)nn2-c2ccc(F)cc2)[C@H](c2ccnc(F)c2)O1 (racemic) [Compound I-239]
[1]; [5]
  IC50: 3.8 nM
